Measured values from patent US20250235543A1, “MODIFIED PROTEINS AND PROTEIN DEGRADERS” (Cullgen (Shanghai), Inc., priority 2021, published 2025).
Like-named read-outs stand apart in the source and are kept apart here.

What was measured:
cyclin D1 = experiment: Cyclin D1 percentage degradation in Calu-1 cells (immunoblotting); format: cell-based; conditions: 200 nM, 16 hours
In short: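 Cells were rinsed once in cold PBS and lysed in cold RIPA buffer containing protease and phosphatase inhibitors, with gentle agitation at 4° C. for 30 min. Lysates were spun at 13,000 rpm for 10 min at 4° C., protein was measured by BCA, and samples were boiled in Laemmli buffer at 99° C. for 5 min before SDS-PAGE immunoblotting.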

CDK4 = target: T1, CDK4 (Homo sapiens, UniProt P11802); experiment: CDK4 percentage degradation in Calu-1 cells (immunoblotting); format: cell-based; conditions: read-out: CDK4 Degradation (200 nM)
T1 construct: endogenous in cells; host or cells: Calu-1
T1 sequence (P11802 2-303 limits assumed): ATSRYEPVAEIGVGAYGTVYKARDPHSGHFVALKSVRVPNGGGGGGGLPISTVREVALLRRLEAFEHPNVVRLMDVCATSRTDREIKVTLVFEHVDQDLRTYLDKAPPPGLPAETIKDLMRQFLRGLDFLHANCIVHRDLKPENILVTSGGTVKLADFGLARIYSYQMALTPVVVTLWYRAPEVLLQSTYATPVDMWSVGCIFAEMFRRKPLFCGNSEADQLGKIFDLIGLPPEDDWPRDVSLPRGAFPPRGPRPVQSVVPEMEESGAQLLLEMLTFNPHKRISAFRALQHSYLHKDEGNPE
T1 sequence (P24385 whole entry partner): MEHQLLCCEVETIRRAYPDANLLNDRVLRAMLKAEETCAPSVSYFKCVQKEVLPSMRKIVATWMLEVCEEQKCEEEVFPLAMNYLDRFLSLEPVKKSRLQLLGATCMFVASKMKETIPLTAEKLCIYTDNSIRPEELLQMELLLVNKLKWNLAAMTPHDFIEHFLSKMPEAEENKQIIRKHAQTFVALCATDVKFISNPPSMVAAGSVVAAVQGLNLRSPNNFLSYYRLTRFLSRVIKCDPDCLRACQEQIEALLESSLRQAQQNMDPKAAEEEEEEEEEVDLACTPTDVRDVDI
T1 sequence (Q16531 2-1140 limits assumed, further chain): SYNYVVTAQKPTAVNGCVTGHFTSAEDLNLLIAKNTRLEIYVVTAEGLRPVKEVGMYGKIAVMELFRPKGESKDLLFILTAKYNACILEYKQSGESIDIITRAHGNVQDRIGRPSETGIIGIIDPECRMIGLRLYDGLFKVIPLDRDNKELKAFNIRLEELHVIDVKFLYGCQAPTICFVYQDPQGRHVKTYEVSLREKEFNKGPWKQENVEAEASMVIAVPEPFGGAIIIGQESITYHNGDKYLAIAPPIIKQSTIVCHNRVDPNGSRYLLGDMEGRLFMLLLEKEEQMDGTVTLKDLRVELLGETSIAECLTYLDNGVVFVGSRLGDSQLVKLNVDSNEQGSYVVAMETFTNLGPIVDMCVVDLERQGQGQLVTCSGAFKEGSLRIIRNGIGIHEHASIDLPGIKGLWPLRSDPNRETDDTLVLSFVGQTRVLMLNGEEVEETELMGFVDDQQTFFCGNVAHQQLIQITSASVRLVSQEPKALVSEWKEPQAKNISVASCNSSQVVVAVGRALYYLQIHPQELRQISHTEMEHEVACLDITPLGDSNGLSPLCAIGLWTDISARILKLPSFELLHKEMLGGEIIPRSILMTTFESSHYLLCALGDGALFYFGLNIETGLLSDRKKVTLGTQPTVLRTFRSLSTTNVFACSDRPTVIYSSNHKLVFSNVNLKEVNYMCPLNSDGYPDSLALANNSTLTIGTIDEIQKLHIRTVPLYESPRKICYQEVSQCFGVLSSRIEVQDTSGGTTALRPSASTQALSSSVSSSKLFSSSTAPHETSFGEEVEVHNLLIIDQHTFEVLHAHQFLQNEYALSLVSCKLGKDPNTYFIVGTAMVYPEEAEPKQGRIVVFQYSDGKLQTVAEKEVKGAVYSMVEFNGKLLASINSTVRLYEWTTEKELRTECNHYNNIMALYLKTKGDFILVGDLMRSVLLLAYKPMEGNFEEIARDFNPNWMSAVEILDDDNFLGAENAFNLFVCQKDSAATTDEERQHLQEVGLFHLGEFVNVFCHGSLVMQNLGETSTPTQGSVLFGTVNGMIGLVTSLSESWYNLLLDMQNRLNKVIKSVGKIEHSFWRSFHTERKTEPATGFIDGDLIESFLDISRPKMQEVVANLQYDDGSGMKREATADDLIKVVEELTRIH
In short: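 Cultured cells were rinsed once in cold PBS and lysed in cold RIPA buffer containing protease and phosphatase inhibitors, with gentle agitation at 4° C. for 30 min. Lysates were centrifuged at 13,000 rpm for 10 min at 4° C., and protein was quantified by BCA. Samples were then separated by SDS-PAGE, detected with ECL, and the CDK4 bands quantified in Image Lab.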

Row | Structure (SMILES) | inhibition at 0.2 µM (CDK4; Calu-1 cells, 200 nM, 16 hours) [%] | CyclinD1 Degradation (200 nM) (cyclin D1) | inhibition at 0.2 µM (CDK4; Calu-1, 16 h) [%]
1 | CC(=O)c1c(C)c2cnc(Nc3ccc(N4CCN(CC(=O)NCCOCCOCCOCCNc5ccc(C)c(C(=O)Nc6nc(C)c(C)s6)c5)CC4)cn3)nc2n(C2CCCC2)c1=O [CPD-127, 5-((1-(4-(6-((6-Acetyl-8-cyclopentyl-5-methyl-7-oxo-7,8-dihydropyrido[2,3-d]pyrimidin-2-yl)amino)pyridin-3-yl)piperazin-1-yl)-2-oxo-6,9,12-trioxa-3-azatetradecan-14-yl)amino)-N-(4,5-dimethylthiazol-2-yl)-2-methylbenzamide] |  | C (protein percentage degradation <50%, and >=30%) | 30 to 50
2 | CC(=O)c1c(C)c2cnc(Nc3ccc(N4CCN(CC(=O)NCCOCCOCCOCCOCCOCCNc5ccc(C(=O)Nc6nc(-c7ccccc7)c(C)s6)c(C)c5)CC4)cn3)nc2n(C2CCCC2)c1=O [CPD-034] | < 30 | D (protein percentage degradation <30%) | 
3 | CC(=O)c1c(C)c2cnc(Nc3ccc(N4CCN(C(=O)CCOCCOCCOCCOCCOCCOCCC(=O)Nc5ccccc5C(=O)Nc5nc(C)c(C)s5)CC4)cn3)nc2n(C2CCCC2)c1=O [CPD-182, 22-(4-(6-((6-Acetyl-8-cyclopentyl-5-methyl-7-oxo-7,8-dihydropyrido[2,3-d]pyrimidin-2-yl)amino)pyridin-3-yl)piperazin-1-yl)-N-(2-((4,5-dimethylthiazol-2-yl)carbamoyl)phenyl)-22-oxo-4,7,10,13,16,19-hexaoxadocosanamide] |  | D (protein percentage degradation <30%) | < 30
4 | CC(=O)c1c(C)c2cnc(Nc3ccc(N4CCN(CC(=O)NCCOCCOCCOCCOCCOCCNc5ccc(C(=O)Nc6ncc(Cl)s6)c(C)c5)CC4)cn3)nc2n(C2CCCC2)c1=O [CPD-005, 4-((1-(4-(6-((6-Acetyl-8-cyclopentyl-5-methyl-7-oxo-7,8-dihydropyrido[2,3-d]pyrimidin-2-yl)amino)pyridin-3-yl)piperazin-1-yl)-2-oxo-6,9,12,15,18-pentaoxa-3-azaicosan-20-yl)amino)-N-(5-chlorothiazol-2-yl)-2-methylbenzamide] | < 30 | D (protein percentage degradation <30%) | 
5 | CC(=O)c1c(C)c2cnc(Nc3ccc(N4CCN(CC(=O)NCCOCCOCCNC(=O)COc5ccc(C(=O)Nc6ncc(C)s6)c(C)c5)CC4)cn3)nc2n(C2CCCC2)c1=O [CPD-039, 4-((14-(4-(6-((6-Acetyl-8-cyclopentyl-5-methyl-7-oxo-7,8-dihydropyrido[2,3-d]pyrimidin-2-yl)amino)pyridin-3-yl)piperazin-1-yl)-2,13-dioxo-6,9-dioxa-3,12-diazatetradecyl)oxy)-2-methyl-N-(5-methylthiazol-2-yl)benzamide] | < 30 | D (protein percentage degradation <30%) | 
6 | CC(=O)c1c(C)c2cnc(Nc3ccc(N4CCN(C(=O)CCOCCOCCOCCOCCOCCOCCNc5ccc(C)c(C(=O)Nc6nc(C)c(C)s6)c5)CC4)cn3)nc2n(C2CCCC2)c1=O [CPD-131, 5-((21-(4-(6-((6-Acetyl-8-cyclopentyl-5-methyl-7-oxo-7,8-dihydropyrido[2,3-d]pyrimidin-2-yl)amino)pyridin-3-yl)piperazin-1-yl)-21-oxo-3,6,9,12,15,18-hexaoxahenicosyl)amino)-N-(4,5-dimethylthiazol-2-yl)-2-methylbenzamide] |  | D (protein percentage degradation <30%) | < 30
7 | CC(=O)c1c(C)c2cnc(Nc3ccc(N4CCN(CC(=O)NCCOCCOCCNC(=O)CNc5ccc(C(=O)Nc6ncc(C)s6)c(C)c5)CC4)cn3)nc2n(C2CCCC2)c1=O [CPD-017, 4-((14-(4-(6-((6-Acetyl-8-cyclopentyl-5-methyl-7-oxo-7,8-dihydropyrido[2,3-d]pyrimidin-2-yl)amino)pyridin-3-yl)piperazin-1-yl)-2,13-dioxo-6,9-dioxa-3,12-diazatetradecyl)amino)-2-methyl-N-(5-methylthiazol-2-yl)benzamide] | < 30 | D (protein percentage degradation <30%) | 
8 | CC(=O)c1c(C)c2cnc(Nc3ccc(N4CCN(C(=O)CCOCCOCCOCCOCCC(=O)Nc5ccccc5C(=O)Nc5nc(C)c(C)s5)CC4)cn3)nc2n(C2CCCC2)c1=O [CPD-176, 16-(4-(6-((6-Acetyl-8-cyclopentyl-5-methyl-7-oxo-7,8-dihydropyrido[2,3-d]pyrimidin-2-yl)amino)pyridin-3-yl)piperazin-1-yl)-N-(2-((4,5-dimethylthiazol-2-yl)carbamoyl)phenyl)-16-oxo-4,7,10,13-tetraoxahexadecanamide] |  | A (protein percentage degradation >=80%) | > 80
9 | CC(=O)c1c(C)c2cnc(Nc3ccc(N4CCN(C(=O)CCCCNc5ccc(C)c(C(=O)Nc6nc(C)c(C)s6)c5)CC4)cn3)nc2n(C2CCCC2)c1=O [CPD-108, 5-((5-(4-(6-((6-Acetyl-8-cyclopentyl-5-methyl-7-oxo-7,8-dihydropyrido[2,3-d]pyrimidin-2-yl)amino)pyridin-3-yl)piperazin-1-yl)-5-oxopentyl)amino)-N-(4,5-dimethylthiazol-2-yl)-2-methylbenzamide] |  | D (protein percentage degradation <30%) | < 30
10 | CC(=O)c1c(C)c2cnc(Nc3ccc(N4CCN(C(=O)CC(=O)Nc5ccccc5C(=O)Nc5nc(C)c(C)s5)CC4)cn3)nc2n(C2CCCC2)c1=O [CPD-158, 2-(3-(4-(6-((6-Acetyl-8-cyclopentyl-5-methyl-7-oxo-7,8-dihydropyrido[2,3-d]pyrimidin-2-yl)amino)pyridin-3-yl)piperazin-1-yl)-3-oxopropanamido)-N-(4,5-dimethylthiazol-2-yl)benzamide] |  | D (protein percentage degradation <30%) | < 30

Continued, in another order:

Row | inhibition at 0.2 µM (CDK4; Calu-1 cells, 200 nM, 16 hours) [%] | Structure (SMILES) | CyclinD1 Degradation (200 nM) (cyclin D1) | inhibition at 0.2 µM (CDK4; Calu-1, 16 h) [%]
11 | > 80 | CC(=O)c1c(C)c2cnc(Nc3ccc(N4CCN(CC(=O)NCCOCCOCCOCCOCCOCCOCCNc5ccc(C)c(C(=O)Nc6nc(C)c(C)s6)c5)CC4)cn3)nc2n(C2CCCC2)c1=O [CPD-132, 5-((1-(4-(6-((6-Acetyl-8-cyclopentyl-5-methyl-7-oxo-7,8-dihydropyrido[2,3-d]pyrimidin-2-yl)amino)pyridin-3-yl)piperazin-1-yl)-2-oxo-6,9,12,15,18,21-hexaoxa-3-azatricosan-23-yl)amino)-N-(4,5-dimethylthiazol-2-yl)-2-methylbenzamide] | A (protein percentage degradation >=80%) | 
12 | 50 to 80 | CC(=O)c1c(C)c2cnc(Nc3ccc(N4CCN(CC(=O)NCCOCCOCCC(=O)Nc5ccccc5C(=O)Nc5cc(C)n(C(C)C)n5)CC4)cn3)nc2n(C2CCCC2)c1=O [CPD-076, 2-(3-(2-(2-(2-(4-(6-((6-Acetyl-8-cyclopentyl-5-methyl-7-oxo-7,8-dihydropyrido[2,3-d]pyrimidin-2-yl)amino)pyridin-3-yl)piperazin-1-yl)acetamido)ethoxy)ethoxy)propanamido)-N-(1-isopropyl-5-methyl-1H-pyrazol-3-yl)benzamide] | C (protein percentage degradation <50%, and >=30%) | 
13 | 50 to 80 | CC(=O)c1c(C)c2cnc(Nc3ccc(N4CCN(CC(=O)NCCOCCOCCC(=O)Nc5ccccc5C(=O)Nc5ccc(C)s5)CC4)cn3)nc2n(C2CCCC2)c1=O [CPD-065, 2-(3-(2-(2-(2-(4-(6-((6-Acetyl-8-cyclopentyl-5-methyl-7-oxo-7,8-dihydropyrido[2,3-d]pyrimidin-2-yl)amino)pyridin-3-yl)piperazin-1-yl)acetamido)ethoxy)ethoxy)propanamido)-N-(5-methylthiophen-2-yl)benzamide] | A (protein percentage degradation >=80%) | 
14 | < 30 | CC(=O)c1c(C)c2cnc(Nc3ccc(N4CCN(CC(=O)NCCOCCC(=O)Nc5ccccc5C(=O)Nc5nc(C)c(C)s5)CC4)cn3)nc2n(C2CCCC2)c1=O [CPD-147, 2-(3-(2-(2-(4-(6-((6-Acetyl-8-cyclopentyl-5-methyl-7-oxo-7,8-dihydropyrido[2,3-d]pyrimidin-2-yl)amino)pyridin-3-yl)piperazin-1-yl)acetamido)ethoxy)propanamido)-N-(4,5-dimethylthiazol-2-yl)benzamide] | D (protein percentage degradation <30%) | 
15 | 50 to 80 | CC(=O)c1c(C)c2cnc(Nc3ccc(N4CCN(CC(=O)NCCOCCOCCC(=O)Nc5ccccc5C(=O)Nc5ccc(C(F)(F)F)cn5)CC4)cn3)nc2n(C2CCCC2)c1=O [CPD-084, 2-(3-(2-(2-(2-(4-(6-((6-Acetyl-8-cyclopentyl-5-methyl-7-oxo-7,8-dihydropyrido[2,3-d]pyrimidin-2-yl)amino)pyridin-3-yl)piperazin-1-yl)acetamido)ethoxy)ethoxy)propanamido)-N-(5-(trifluoromethyl)pyridin-2-yl)benzamide] | A (protein percentage degradation >=80%) | 
16 | < 30 | CNC(=O)c1ccc(C)nc1NCCCCCCCNC(=O)CN1CCN(c2ccc(Nc3ncc4c(C)c(C(C)=O)c(=O)n(C5CCCC5)c4n3)nc2)CC1 [CPD-340] | D (protein percentage degradation <30%) | 
